Data reported in patent publication US20090131302A1, “Transient receptor potential vanilloid 1 and uses thereof” (priority 2007, published 2009).
“Also recorded” adds a separate entry of the source. Values belong to the compound of their own block, whether it stands above or below them.

Key:
TRPV1 [1] = molecular target: T1, TRPV1 (Rattus norvegicus, UniProt O35433); test: Neonatal TRPV1 antagonist pre-treatment before P10 colonic acetic acid; sensitivity to colorectal distention at 8 weeks; type: in vivo
T1 construct: endogenous in cells; host or cells: living rats (neonatal and adult); DRG and spinal cord tissue for the expression work
T1 sequence (O35433 whole entry): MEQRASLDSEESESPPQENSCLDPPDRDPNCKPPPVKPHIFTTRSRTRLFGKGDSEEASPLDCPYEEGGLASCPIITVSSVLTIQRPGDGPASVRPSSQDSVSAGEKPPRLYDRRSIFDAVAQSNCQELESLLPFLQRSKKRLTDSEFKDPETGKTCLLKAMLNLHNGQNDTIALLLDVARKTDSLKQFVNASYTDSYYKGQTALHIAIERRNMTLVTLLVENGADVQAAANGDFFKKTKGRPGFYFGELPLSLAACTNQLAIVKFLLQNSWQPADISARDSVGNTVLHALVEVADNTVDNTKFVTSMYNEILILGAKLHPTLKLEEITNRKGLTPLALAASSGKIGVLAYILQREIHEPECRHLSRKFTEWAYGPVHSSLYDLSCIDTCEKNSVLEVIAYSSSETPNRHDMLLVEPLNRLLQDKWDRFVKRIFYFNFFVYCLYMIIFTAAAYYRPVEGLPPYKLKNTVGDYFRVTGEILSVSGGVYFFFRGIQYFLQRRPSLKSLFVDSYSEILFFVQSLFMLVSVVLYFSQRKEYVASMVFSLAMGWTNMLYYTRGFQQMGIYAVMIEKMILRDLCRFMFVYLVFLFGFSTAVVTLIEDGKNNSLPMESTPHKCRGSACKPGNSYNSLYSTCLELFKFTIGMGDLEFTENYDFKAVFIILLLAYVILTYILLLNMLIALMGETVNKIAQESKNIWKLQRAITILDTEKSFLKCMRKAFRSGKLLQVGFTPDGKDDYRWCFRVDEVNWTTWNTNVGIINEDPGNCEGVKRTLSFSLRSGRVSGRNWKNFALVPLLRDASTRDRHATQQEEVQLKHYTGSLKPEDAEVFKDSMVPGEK
Description: (§1) In the first experiment, 3 groups of 10 neonatal rats were used. While Group 1 received SB-366791, 1.3 mg/kg subcutaneously 30 minutes prior to colonic acetic acid administration. Group 2 received vehicle subcutaneously prior to colonic acetic acid administration, and Group 3 received vehicle prior to colonic saline administration. In the second experiment, 3 groups of 10 neonatal rats were used. All rats received a drug or vehicle subcutaneously 24 hours and 30 minutes prior to colonic acetic acid administration. Group 4 received SB-366791, 2.6 mg/kg, Group 5 received I-RTX, 2 mg/kg, and Group 6 received vehicle. For both experiments, at 8 weeks of age, EMG recordings and abdominal withdrawal reflex grades were simultaneously obtained in response to graded colorectal distention. To test the effect of TRPV1 inhibitors on adults, 2 groups of 10 rats were used: on post-natal day 10, Group 7 received colonic acetic acid, Group 8 received colonic saline. At 7 weeks of age, Groups 7 and 8 were split: half of each group received SB-366791, 1.3 mg/kg, and half vehicle, subcutaneously 30 minutes prior to colorectal distention. After one week of period, vehicle and drug groups were crossed-over and sensitivity to colorectal distention was measured again.
Ten days old rat pups received TRPV1 antagonist or vehicle subcutaneously 30 minutes prior to colon acetic acid infusion and were tested for sensitivity to colorectal distention at 8 weeks of age.
Thus, antagonism of the TRPV1 prior to neonatal administration of acetic acid attenuated the development of sensitivity to colorectal distention.

TRPV1 [2] = molecular target: TRPV1 (Homo sapiens, UniProt Q8NER1); details: cited from earlier work
TRPV1 (Homo sapiens, UniProt Q8NER1), sequence (Q8NER1 whole entry, species assumed): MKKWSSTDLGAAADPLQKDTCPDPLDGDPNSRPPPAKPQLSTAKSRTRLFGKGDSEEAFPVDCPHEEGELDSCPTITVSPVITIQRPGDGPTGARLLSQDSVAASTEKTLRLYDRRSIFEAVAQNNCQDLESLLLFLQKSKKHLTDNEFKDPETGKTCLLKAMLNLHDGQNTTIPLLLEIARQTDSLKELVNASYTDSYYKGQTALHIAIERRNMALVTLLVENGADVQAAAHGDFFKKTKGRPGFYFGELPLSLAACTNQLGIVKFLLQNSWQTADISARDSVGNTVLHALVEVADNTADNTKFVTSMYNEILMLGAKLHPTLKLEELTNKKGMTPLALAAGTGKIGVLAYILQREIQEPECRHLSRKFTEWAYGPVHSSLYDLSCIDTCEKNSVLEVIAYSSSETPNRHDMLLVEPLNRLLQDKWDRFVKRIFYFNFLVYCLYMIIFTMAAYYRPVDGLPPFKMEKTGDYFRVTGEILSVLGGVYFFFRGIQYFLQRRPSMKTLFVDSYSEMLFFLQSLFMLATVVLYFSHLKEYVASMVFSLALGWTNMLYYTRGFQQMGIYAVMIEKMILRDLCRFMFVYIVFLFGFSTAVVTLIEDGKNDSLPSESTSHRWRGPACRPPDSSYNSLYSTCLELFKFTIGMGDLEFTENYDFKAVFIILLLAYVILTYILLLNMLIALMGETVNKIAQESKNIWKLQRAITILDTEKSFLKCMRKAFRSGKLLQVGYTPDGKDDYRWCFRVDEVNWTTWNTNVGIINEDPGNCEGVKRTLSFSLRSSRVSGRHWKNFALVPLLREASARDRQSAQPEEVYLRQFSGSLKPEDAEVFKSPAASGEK

TRPV1 [3] = details: cited from earlier work
p38 = details: models of inflammation and neuropathy; cited from earlier work
TRPV1 [4] = molecular target: T1, TRPV1; test: TRPV1 antagonism in adult rats neonatally treated with acetic acid or saline; graded colorectal distention; type: in vivo; details: 1.3 mg/kg 30 minutes prior to CRD
Description: as §1
AWR scores of drug and vehicle treated rats as adults within each neonatal treatment group (P10 acetic acid or P10 saline) were compared at each distention pressure by Wilcoxon signed rank test.

[5] = system: 50 receptors of various types; design: dose or concentration left out as unconfirmed; details: cited from earlier work
[6] = system: voltage-gated Ca++ currents or the hyperpolarization activated current in rat DRG neurons; details: at 1 mM; cited from earlier work
[7] = system: AMPA or NMDA mediated hippocampal synaptic transmission; details: cited from earlier work
TRPV1 [8] = details: in vivo; cited from earlier work
MEK = details: cited from earlier work
TRPV1 [9] = molecular target: T1, TRPV1; test: Neonatal colonic capsaicin infusion; sensitivity to colorectal distention at 7 weeks; type: in vivo; details: 0.2 ml of 50 mg/ml into colon at P10, tested at 7 weeks, 20, 40, 60, 80 mm Hg, vs unmanipulated and vehicle
Description: To treat neonatal rats with capsaicin, ten day old rat pups received an infusion of 0.2 mls of 50 mg/ml capsaicin or 0.2 mls vehicle: 10% ethanol, 10% Tween 20, 80% saline or were left unmanipulated. Visceral sensitivity and inflammatory parameters were measured in these rats between 8 and 12 weeks of age. […] After 4 weeks, rats were tested for sensitivity to colorectal distention.
Visceral hypersensitivity was measured by grading the response of rats to colorectal distention as previously described.^11 Briefly, under mild sedation with 1% Brevital (Eli Lily & Co Indianapolis, Ind.) 25 mg/kg i.p.), a flexible balloon (5 cm) constructed from a surgical glove finger attached to a tygon tubing was inserted 8 cm into the descending colon and rectum via the anus and held in place by taping the tubing to the tail. Rats were placed in small Lucite cubicles (20×8×8 cm) (Bioengineering Department, UTMB) and were allowed to adapt for 30 minutes. […] Pressure was measured using a sphygmomanometer connected to a pressure transducer. […] Behavioral responses to colorectal distention were measured by visual observation of the abdominal withdrawal reflex by blinded observer and the assignment of an AWR score as follows: 1=Normal behavior without response 2=Contraction of abdominal muscles; 3=Lifting of abdominal wall; 4=Body arching and lifting of pelvic structures. […]

p38 and ERK = details: peripheral administration; cited from earlier work
[10] = in vivo; cited from earlier work
calcium channels = details: at high concentrations; cited from earlier work
TRPV1 [11] = molecular target: T2, TRPV1 (Mus musculus, UniProt Q704Y3); details: cited from earlier work
T2 construct: host or cells: colon and jejunal afferent fibre preparations
T2 sequence (Q704Y3 whole entry): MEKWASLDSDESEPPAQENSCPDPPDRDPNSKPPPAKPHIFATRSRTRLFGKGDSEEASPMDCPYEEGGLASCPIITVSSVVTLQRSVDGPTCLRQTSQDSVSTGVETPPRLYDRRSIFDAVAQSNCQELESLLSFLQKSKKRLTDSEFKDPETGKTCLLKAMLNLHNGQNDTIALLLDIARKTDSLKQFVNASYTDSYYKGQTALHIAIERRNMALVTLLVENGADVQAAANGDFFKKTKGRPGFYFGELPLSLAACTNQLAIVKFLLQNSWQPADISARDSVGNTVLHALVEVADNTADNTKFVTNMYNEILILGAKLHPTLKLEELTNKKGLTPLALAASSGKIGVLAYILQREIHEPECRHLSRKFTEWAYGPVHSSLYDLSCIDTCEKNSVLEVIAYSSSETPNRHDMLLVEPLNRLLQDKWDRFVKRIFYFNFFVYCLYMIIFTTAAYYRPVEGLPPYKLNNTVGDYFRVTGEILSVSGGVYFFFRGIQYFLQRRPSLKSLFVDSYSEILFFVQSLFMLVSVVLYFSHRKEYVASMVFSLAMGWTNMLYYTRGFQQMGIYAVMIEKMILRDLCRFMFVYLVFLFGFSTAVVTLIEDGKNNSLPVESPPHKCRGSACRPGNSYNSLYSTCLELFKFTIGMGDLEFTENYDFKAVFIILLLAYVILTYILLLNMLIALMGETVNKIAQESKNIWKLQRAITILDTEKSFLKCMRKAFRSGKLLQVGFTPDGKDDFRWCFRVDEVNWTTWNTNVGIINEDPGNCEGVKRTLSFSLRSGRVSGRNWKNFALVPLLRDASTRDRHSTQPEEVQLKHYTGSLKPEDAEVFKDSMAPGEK

[12] = 1.3 mg/kg s.c. 30 minutes prior to P10 acetic acid, tested at 8 weeks, 40, 60 and 80 mm Hg, vs vehicle

Structure (SMILES): C=C(C)[C@]12C[C@@H](C)[C@@]34O[C@](Cc5ccccc5)(O[C@@H]1[C@@H]3C=C(COC(=O)Cc1cc(I)c(O)c(OC)c1)C[C@]1(O)C(=O)C(C)=C[C@@H]41)O2 [I-RTX, 5′Iodoresiniferatoxin]
sensitivity to colorectal distention by AWR grade (TRPV1 [1]; 2 mg/kg s.c. 24 hours and 30 minutes prior to P10 acetic acid, 8 weeks, 10, 20 and 40 mm Hg): reduced sensitivity
sensitivity to colorectal distention by AWR grade (TRPV1 [1]; 2 mg/kg s.c. 24 hours and 30 minutes prior to P10 acetic acid, 8 weeks, 10, 20 and 40 mm Hg, listed as 1-RTX): significant decreased sensitivity
sensitivity to colorectal distention by EMG (TRPV1 [1]; 2 mg/kg s.c. 24 hours and 30 minutes prior to P10 acetic acid, 8 weeks, 20, 40, 60 and 80 mm Hg): reduced sensitivity
sensitivity to colorectal distention by EMG (TRPV1 [1]; 2 mg/kg s.c. 24 hours and 30 minutes prior to P10 acetic acid, 8 weeks, 20, 40, 60 and 80 mm Hg, listed as 1-RTX): significant decreased sensitivity
potency and selectivity compared with capsezapine (TRPV1 [2]): more potent and selective antagonists
blocking TRPV1-mediated effects in several animal models in vivo (TRPV1 [3]): effective in blocking TRPV1-mediated effects

Structure (SMILES): C[S+]([O-])c1ccc(-c2nc(-c3ccncc3)c(-c3ccc(F)cc3)[nH]2)cc1 (stereo not drawn) [SB-203580]
development of behavioral hypersensitivity (p38): blocks the development of behavioral hypersensitivity

EMG activity in response to colorectal distention (TRPV1 [1]; [12]): significantly less
AWR response to colorectal distention, P10 saline treated adult rats (TRPV1 [4]; 10-80 mm Hg): no significant effect
AWR response to colorectal distention, P10 acetic acid treated adult rats (TRPV1 [4]; 10 and 80 mm Hg): No significant differences
AWR response to colorectal distention, P10 acetic acid treated adult rats (TRPV1 [4]; 20 mm Hg): trend towards significance
AWR response to colorectal distention, P10 acetic acid treated adult rats (TRPV1 [4]; 40 and 60 mm Hg, vs vehicle): reduced sensitivity to CRD
AWR response to colorectal distention, P10 acetic acid treated adult rats (TRPV1 [4]; 40 and 60 mm Hg, vs vehicle, listed as SB-366,791): significant decline
Structure (SMILES): COc1cccc(NC(=O)C=Cc2ccc(Cl)cc2)c1 [SB-366791, N-(3-Methoxyphenyl)-4-chlorocinnamide]
sensitivity to colorectal distention by AWR grade (TRPV1 [1]; [12]): significant decreases in sensitivity to colorectal distention
sensitivity to colorectal distention by AWR grade (TRPV1 [1]; 2.6 mg/kg s.c. 24 hours and 30 minutes prior to P10 acetic acid, 8 weeks, 10, 20, 40 and 60 mm Hg): reduced sensitivity; also recorded: significantly decreased sensitivity
sensitivity to colorectal distention by EMG (TRPV1 [1]; 2.6 mg/kg s.c. 24 hours and 30 minutes prior to P10 acetic acid, 8 weeks, 20, 40 and 60 mm Hg): reduced sensitivity; also recorded: significantly decreased sensitivity
acid-mediated activation (TRPV1 [2]): blocks acid-mediated activation
potency and selectivity compared with capsezapine (TRPV1 [2]): more potent and selective antagonists
Ki (TRPV1 [2]; competitive antagonist of capsaicin): 18 nM
effect in in vitro binding assays against 50 receptors of various types [5]: little or no effect
effect on hyperpolarization activated current [6]: little or no effect
effect on voltage-gated Ca++ currents [6]: little or no effect
effects on AMPA or NMDA mediated hippocampal synaptic transmission [7]: no effects
capsaicin effects on thermoregulation (TRPV1 [8]): block capsaicin effects on thermoregulation

Structure (SMILES): N#CC(=C(/N)Sc1ccccc1N)/C(C#N)=C(\N)Sc1ccccc1N [U0126]
epinephrine induced mechanical hypersensitivity (MEK; in vivo): reduces epinephrine induced mechanical hypersensitivity
thermal and mechanical hypersensitivity (MEK; models of inflammation and neuropathic pain): attenuates thermal and mechanical hypersensitivity

sensitivity to colorectal distention (TRPV1 [9]): increased sensitivity
Structure (SMILES): COc1cc(CNC(=O)CCCC/C=C/C(C)C)ccc1O [capsaicin]
sensitivity to colorectal distention (TRPV1 [9]; listed as CAP): significantly more sensitive to colorectal distention
p38 and ERK activation in dorsal root ganglia neurons (p38 and ERK): activates p38 and ERK

Structure (SMILES): Oc1cc2c(cc1O)CN(C(=S)NCCc1ccc(Cl)cc1)CCC2 [capsazepine]
pharmacokinetic properties [10]: poor pharmacokinetic properties
calcium channel block (calcium channels): blocks calcium channels at high concentrations
colon afferent fiber responses to stretch (TRPV1 [11]): inhibited
jejunal afferent responses to acid (TRPV1 [11]): inhibited
